Measurements as given in patent publication US12453709B2, “Compositions and methods for treating autism” (priority 2013, dated 2025).
Marks after values point to notes of the source that are not given here.

Tested on: male patients diagnosed with autism
Test: Study HT 02-121: adverse events
Format: in vivo, human
Procedure: The purpose of this clinical study (referred to herein as “Study HT 02-121”; i.e., Example 6) was to determine whether L1-79 was a well-tolerated and clinically useful agent for the treatment of ASD, and to assess the PK and pharmacodynamics (PD) of four weeks of TID dosing with L1-79. […] The first cohort of 20 patients was comprised of three groups of patients: The first group of five patients received open-label L1-79 100 mg TID and underwent PK and EKG assessments. […] The PK and safety data from the open-label L1-79 100 mg TID group was submitted to FDA for review and acceptance before the second cohort was enrolled. The second cohort was procedurally identical to the first. The second cohort of 20 patients was comprised of the same three groups of patients but a dose of 200 mg TID was used instead of 100 mg TID. The key inclusion criteria were as follows: […] Safety was the primary endpoint of the study. The following safety endpoints were assessed: ECGs, physical exams, laboratory evaluations (hematology, chemistry and urinalysis), vital signs, including orthostatic blood pressure, adverse events (AEs) and concomitant medications. The incidence of AEs by primary system organ class and preferred term is presented in Table 7, and a listing of the AEs reported during the study is presented in Table 8. All AEs were mild to moderate in intensity and self-limited.

## CC(N)(Cc1ccc(O)cc1)C(=O)O (racemic) [L1-79, α-methyl-DL-tyrosine]
28-day treatment period
  safety and tolerability: safe and well tolerated
DB 100 mg TID, N = 10
  Incidence of AEs: Agitation: 0[0] n(%)
  Incidence of AEs: All primary SOC: 1(10.0) n(%)
  Incidence of AEs: Amylase †: 0[0] n(%)
  Incidence of AEs: Anxiety: 0[0] n(%)
  Incidence of AEs: Blood TSH †: 0[0] n(%)
  Incidence of AEs: Confusional state: 0[0] n(%)
  Incidence of AEs: Cough: 0[0] n(%)
  Incidence of AEs: Crystal urine present: 0[0] n(%)
  Incidence of AEs: Diarrhoea: 0[0] n(%)
  Incidence of AEs: Ear infection: 0[0] n(%)
  Incidence of AEs: Fatigue: 0[0] n(%)
  Incidence of AEs: GI disorders: 0[0] n(%)
  Incidence of AEs: General disorders & administration site conditions: 0[0] n(%)
  Incidence of AEs: Generalized tonic-clonic seizure: 0[0] n(%)
  Incidence of AEs: Immune system disorders: 0[0] n(%)
  Incidence of AEs: Infections and infestations: 0[0] n(%)
  Incidence of AEs: International self-injury: 0[0] n(%)
  Incidence of AEs: Investigations: 0[0] n(%)
  Incidence of AEs: Irritability: 0[0] n(%)
  Incidence of AEs: Nasopharyngitis: 0[0] n(%)
  Incidence of AEs: Nervous system disorders: 1(10.0) n(%)
  Incidence of AEs: Otitis externa: 0[0] n(%)
  Incidence of AEs: Psychiatric disorders: 0[0] n(%)
  Incidence of AEs: Pyrexia: 0[0] n(%)
  Incidence of AEs: Renal and urinary disorders: 0[0] n(%)
  Incidence of AEs: Respiratory, thoracic & mediastinal disorders: 0[0] n(%)
  Incidence of AEs: Seasonal allergy: 0[0] n(%)
  Incidence of AEs: Syncope: 1(10.0) n(%)
  Incidence of AEs: Urinary incontinence: 0[0] n(%)
  Number of AE events: All primary SOC: 1 [e]
  Number of AE events: Nervous system disorders: 1 [e]
  Number of AE events: Syncope: 1 [e]
DB 200 mg TID, N = 11
  Incidence of AEs: Agitation: 0[0] n(%)
  Incidence of AEs: All primary SOC: 6(54.5) n(%)
  Incidence of AEs: Amylase †: 0[0] n(%)
  Incidence of AEs: Anxiety: 1(9.1) n(%)
  Incidence of AEs: Blood TSH †: 1(9.1) n(%)
  Incidence of AEs: Confusional state: 0[0] n(%)
  Incidence of AEs: Cough: 0[0] n(%)
  Incidence of AEs: Crystal urine present: 2(18.2) n(%)
  Incidence of AEs: Diarrhoea: 3(27.3) n(%)
  Incidence of AEs: Ear infection: 1(9.1) n(%)
  Incidence of AEs: Fatigue: 0[0] n(%)
  Incidence of AEs: GI disorders: 3(27.3) n(%)
  Incidence of AEs: General disorders & administration site conditions: 0[0] n(%)
  Incidence of AEs: Generalized tonic-clonic seizure: 1(9.1) n(%)
  Incidence of AEs: Immune system disorders: 0[0] n(%)
  Incidence of AEs: Infections and infestations: 2(18.2) n(%)
  Incidence of AEs: International self-injury: 0[0] n(%)
  Incidence of AEs: Investigations: 3(27.3) n(%)
  Incidence of AEs: Irritability: 0[0] n(%)
  Incidence of AEs: Nasopharyngitis: 0[0] n(%)
  Incidence of AEs: Nervous system disorders: 1(9.1) n(%)
  Incidence of AEs: Otitis externa: 1(9.1) n(%)
  Incidence of AEs: Psychiatric disorders: 1(9.1) n(%)
  Incidence of AEs: Pyrexia: 0[0] n(%)
  Incidence of AEs: Renal and urinary disorders: 0[0] n(%)
  Incidence of AEs: Respiratory, thoracic & mediastinal disorders: 0[0] n(%)
  Incidence of AEs: Seasonal allergy: 0[0] n(%)
  Incidence of AEs: Syncope: 0[0] n(%)
  Incidence of AEs: Urinary incontinence: 0[0] n(%)
  Number of AE events: All primary SOC: 10 [e]
  Number of AE events: Anxiety: 1 [e]
  Number of AE events: Blood TSH †: 1 [e]
  Number of AE events: Crystal urine present: 2 [e]
  Number of AE events: Diarrhoea: 3 [e]
  Number of AE events: Ear infection: 1 [e]
  Number of AE events: GI disorders: 3 [e]
  Number of AE events: Generalized tonic-clonic seizure: 1 [e]
  Number of AE events: Infections and infestations: 2 [e]
  Number of AE events: Investigations: 3 [e]
  Number of AE events: Nervous system disorders: 1 [e]
  Number of AE events: Otitis externa: 1 [e]
  Number of AE events: Psychiatric disorders: 1 [e]
OL 100 mg TID, N = 5
  Incidence of AEs: Agitation: 0[0] n(%)
  Incidence of AEs: All primary SOC: 2(40.0) n(%)
  Incidence of AEs: Amylase †: 0[0] n(%)
  Incidence of AEs: Anxiety: 1(20.0) n(%)
  Incidence of AEs: Blood TSH †: 0[0] n(%)
  Incidence of AEs: Confusional state: 1(20.0) n(%)
  Incidence of AEs: Cough: 0[0] n(%)
  Incidence of AEs: Crystal urine present: 0[0] n(%)
  Incidence of AEs: Diarrhoea: 0[0] n(%)
  Incidence of AEs: Ear infection: 0[0] n(%)
  Incidence of AEs: Fatigue: 0[0] n(%)
  Incidence of AEs: GI disorders: 0[0] n(%)
  Incidence of AEs: General disorders & administration site conditions: 0[0] n(%)
  Incidence of AEs: Generalized tonic-clonic seizure: 0[0] n(%)
  Incidence of AEs: Immune system disorders: 0[0] n(%)
  Incidence of AEs: Infections and infestations: 0[0] n(%)
  Incidence of AEs: International self-injury: 2(40.0) n(%)
  Incidence of AEs: Investigations: 0[0] n(%)
  Incidence of AEs: Irritability: 2(40.0) n(%)
